{
  "source": "patent US8415336B2",
  "about": "“Cyclic (aza)indolizinecarboxamides, their preparation and their use as pharmaceuticals” (Sanofi, priority 2009, dated 2013)",
  "note": "Counter-ions that a name gives are not always drawn.",
  "data": [
    {"units": {"melting point": "°C"}, "values": [
      {"compound": "Cc1c(F)cccc1Cc1c(-c2ccccc2)c2ccccn2c1C(=O)N1CCN[C@@H](CC(=O)NCc2cccnc2)C1", "note": "(as salt: hydrochloride) [Example 32]", "melting point": "181 to 182"},
      {"compound": "CNC(=O)CC[C@H]1CN(C(=O)c2c(Cc3cccc(F)c3C)c(-c3ccccc3)c3ccccn23)CCN1", "note": "(as salt: hydrochloride) [Example 26]", "melting point": "127 to 129"},
      {"compound": "O=C(c1c(Cc2c(F)cccc2Cl)c(-c2ccccc2)c2ccccn12)N1CCNCC1", "note": "(as salt: hydrochloride) [Example 3, [2-(2-Chloro-6-fluoro-benzyl)-1-phenyl-indolizin-3-yl]-piperazin-1-yl-methanone]", "melting point": 304},
      {"compound": "COCCN(C)C(=O)C[C@H]1CN(C(=O)c2c(Cc3cccc(F)c3C)c(-c3ccccc3)c3cc(C(=O)N(C)C)cnn23)CCN1", "note": "(as salt: hydrochloride) [Example 46]", "melting point": "130 to 132"},
      {"compound": "CCNC(=O)c1cnn2c(C(=O)N3CCN[C@@H](CC(=O)NCCOC)C3)c(Cc3cccc(F)c3C)c(-c3ccccc3)c2c1", "note": "(as salt: hydrochloride) [Example 42, 6-(3-fluoro-2-methyl-benzyl)-7-{(S)-3-[(2-methoxy-ethylcarbamoyl)-methyl]-piperazine-1-carbonyl}-5-phenyl-pyrrolo[1,2-b]pyridazine-3-carboxylic acid ethylamide]", "melting point": "151 to 153"},
      {"compound": "Cc1c(F)cccc1Cc1c(-c2ccccc2)c2ccccn2c1C(=O)N1CCNCC1", "note": "(as salt: hydrochloride) [Example 1, [2-(3-Fluoro-2-methyl-benzyl)-1-phenyl-indolizin-3-yl]-piperazin-1-yl-methanone]", "melting point": 263},
      {"compound": "COC(=O)CCNC(=O)C[C@H]1CN(C(=O)c2c(Cc3cccc(F)c3C)c(-c3ccccc3)c3ccccn23)CCN1", "note": "(as salt: hydrochloride) [Example 30]", "melting point": "112 to 113"},
      {"compound": "Cc1c(F)cccc1Cc1c(-c2ccccc2)c2cccnn2c1C(=O)N1CCNCC1", "note": "(as salt: hydrochloride) [Example 9, [6-(3-Fluoro-2-methyl-benzyl)-5-phenyl-pyrrolo[1,2-b]pyridazin-7-yl]-piperazin-1-yl-methanone]", "melting point": "140 to 142"},
      {"compound": "CNC(=O)c1cnn2c(C(=O)N3CCNCC3)c(Cc3cccc(F)c3C)c(-c3ccccc3)c2c1", "note": "(as salt: hydrochloride) [Example 8, 6-(3-Fluoro-2-methyl-benzyl)-5-phenyl-7-(piperazine-1-carbonyl)-pyrrolo[1,2-b]pyridazin-3-carboxylic acid methylamide]", "melting point": "208 to 210"},
      {"compound": "Cc1c(F)cccc1Cc1c(-c2ccccc2)c2ccccn2c1C(=O)N1CCN[C@@H](CCO)C1", "note": "(as salt: hydrochloride) [Example 5, [2-(3-Fluoro-2-methyl-benzyl)-1-phenyl-indolizin-3-yl]-[(S)-3-(2-hydroxy-ethyl)-piperazin-1]-yl-methanone]", "melting point": 202},
      {"compound": "COc1ccn2c(C(=O)N3CCNCC3)c(Cc3cccc(F)c3C)c(-c3ccccc3)c2c1", "note": "(as salt: hydrochloride) [Example 35, [2-(3-fluoro-2-methyl-benzyl)-7-methoxy-1-phenyl-indolizin-3-yl]-piperazin-1-yl-methanone]", "melting point": "124 to 125"},
      {"compound": "Cc1c(F)cccc1Cc1c(-c2ccccc2)c2ccccn2c1C(=O)N1CCN[C@@H](CC(=O)NCC2CCOCC2)C1", "note": "(as salt: hydrochloride) [Example 6, 2-{(S)-4-[2-(3-Fluoro-2-methyl-benzyl)-1-phenyl-indolizine-3-carbonyl]-piperazin-2-yl}-N-(tetrahydropyran-4-ylmethyl)-acetamide]", "melting point": 147},
      {"compound": "Cc1cccc(C)c1Cc1c(-c2ccccc2)c2ccccn2c1C(=O)N1CCN[C@H](C)C1", "note": "(as salt: hydrochloride) [Example 17, [2-(2,6-Dimethyl-benzyl)-1-phenyl-indolizin-3-yl)-((R)-3-methyl-piperazin-1-yl)-methanone]", "melting point": 302},
      {"compound": "Cc1c(F)cccc1Cc1c(-c2ccccc2)c2ccccn2c1C(=O)N1CCN[C@@H](CC(=O)NCC(C)(C)C(N)=O)C1", "note": "(as salt: hydrochloride) [Example 7, 3-(2-{(S)-4-[2-(3-Fluoro-2-methyl-benzyl)-1-phenyl-indolizine-3-carbonyl]-piperazin-2-yl}-acetylamino)-2,2-dimethyl-propionamide]", "melting point": "174 to 176"},
      {"compound": "Cc1c(F)cccc1Cc1c(-c2ccccc2)c2ccccn2c1C(=O)N1CCN[C@@H](CO)C1", "note": "(as salt: hydrochloride) [Example 22]", "melting point": "180 to 181"},
      {"compound": "Cc1c(F)cccc1Cc1c(C2CCCCC2)c2ccccn2c1C(=O)N1CCNCC1", "note": "(as salt: hydrochloride) [Example 2, [1-Cyclohexyl-2-(3-fluoro-2-methyl-benzyl)-indolizin-3-yl]-piperazin-1-yl-methanone]", "melting point": "317 to 318"},
      {"compound": "Cc1c(F)cccc1Cc1c(-c2ccccc2)c2ccccn2c1C(=O)N1CCN[C@@H](CC(=O)NCCS(C)(=O)=O)C1", "note": "(as salt: hydrochloride) [Example 31]", "melting point": "166 to 168"},
      {"compound": "CNC(=O)c1ccn2c(C(=O)N3CCNCC3)c(Cc3cccc(F)c3C)c(-c3ccccc3)c2c1", "note": "(as salt: hydrochloride) [Example 4, 2-(3-Fluoro-2-methyl-benzyl)-1-phenyl-3-(piperazine-1-carbonyl)-indolizine-7-carboxylic acid methylamide]", "melting point": 205},
      {"compound": "Cc1c(F)cccc1Cc1c(-c2ccccc2)c2cc(O)cnn2c1C(=O)N1CCNCC1", "note": "(as salt: hydrochloride) [Example 10, [6-(3-Fluoro-2-methyl-benzyl)-3-hydroxy-5-phenyl-pyrrolo[1,2-b]pyridazin-7-yl]-piperazin-1-yl-methanone]", "melting point": "206 to 208"},
      {"compound": "Cc1c(F)cccc1Cc1c(-c2ccccc2)c2cc(C(=O)N3CCCCC3)cnn2c1C(=O)N1CCN[C@@H](CC(=O)NCCO)C1", "note": "(as salt: hydrochloride) [Example 39]", "melting point": "164 to 166"},
      {"compound": "CNC(=O)c1ccc2c(-c3ccccc3)c(Cc3cccc(F)c3C)c(C(=O)N3CCNCC3)n2c1", "note": "(as salt: hydrochloride) [Example 13, 2-(3-Fluoro-2-methyl-benzyl)-1-phenyl-3-(piperazine-1-carbonyl)-indolizine-6-carboxylic acid methylamide]", "melting point": 273}
    ]}
  ]
}
